Results as given in ChEMBL document CHEMBL5096167, “Recent advances in development of hetero-bivalent kinase inhibitors” (Eur J Med Chem, 2021).
pIC50, pKd, pKi: −log10 of the molar value. Each block holds one molecule with its values, some of them ahead of it.

How the values were obtained:
[1] = target: Proto-oncogene tyrosine-protein kinase Src (Gallus gallus, UniProt P00523); assay: Binding affinity to chicken 6-His tagged c-Src expressed in Escherichia coli Bl21 (DE3) assessed as dissociation constant
[2] = target: Mitogen-activated protein kinase 7 (Mus musculus, UniProt Q9WVS8); assay: Activation of ERK5 in MEF cells; format: cell-based
Sequence of Mitogen-activated protein kinase 7 (Q9WVS8 whole entry): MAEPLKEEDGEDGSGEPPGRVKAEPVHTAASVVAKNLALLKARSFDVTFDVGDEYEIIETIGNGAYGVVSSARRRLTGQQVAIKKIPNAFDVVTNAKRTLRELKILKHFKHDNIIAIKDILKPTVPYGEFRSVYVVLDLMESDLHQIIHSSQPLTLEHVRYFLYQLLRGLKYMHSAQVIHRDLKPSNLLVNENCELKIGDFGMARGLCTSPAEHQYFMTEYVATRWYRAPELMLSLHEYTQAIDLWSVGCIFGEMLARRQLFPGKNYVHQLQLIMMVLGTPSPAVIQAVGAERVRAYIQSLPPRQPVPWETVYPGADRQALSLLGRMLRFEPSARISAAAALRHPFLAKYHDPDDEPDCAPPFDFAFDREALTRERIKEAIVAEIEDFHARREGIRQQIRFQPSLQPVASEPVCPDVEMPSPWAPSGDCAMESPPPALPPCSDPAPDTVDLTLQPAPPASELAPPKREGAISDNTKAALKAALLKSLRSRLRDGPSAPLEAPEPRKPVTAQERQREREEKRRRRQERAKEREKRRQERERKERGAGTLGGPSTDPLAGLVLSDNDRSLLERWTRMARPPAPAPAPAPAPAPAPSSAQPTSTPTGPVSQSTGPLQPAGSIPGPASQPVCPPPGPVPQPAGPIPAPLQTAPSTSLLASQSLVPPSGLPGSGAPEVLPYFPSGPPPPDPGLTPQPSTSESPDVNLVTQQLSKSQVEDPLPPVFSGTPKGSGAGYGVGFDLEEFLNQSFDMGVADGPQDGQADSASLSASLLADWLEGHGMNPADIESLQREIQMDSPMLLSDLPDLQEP

[3] = target: Proto-oncogene tyrosine-protein kinase Src (Homo sapiens, UniProt P12931); assay: Irreversible inhibition of wild type c-Src (unknown origin) assessed as inhibition constant by fluorimetric assay
Sequence of Proto-oncogene tyrosine-protein kinase Src (Homo sapiens, UniProt P12931) (P12931 2-536 limits assumed): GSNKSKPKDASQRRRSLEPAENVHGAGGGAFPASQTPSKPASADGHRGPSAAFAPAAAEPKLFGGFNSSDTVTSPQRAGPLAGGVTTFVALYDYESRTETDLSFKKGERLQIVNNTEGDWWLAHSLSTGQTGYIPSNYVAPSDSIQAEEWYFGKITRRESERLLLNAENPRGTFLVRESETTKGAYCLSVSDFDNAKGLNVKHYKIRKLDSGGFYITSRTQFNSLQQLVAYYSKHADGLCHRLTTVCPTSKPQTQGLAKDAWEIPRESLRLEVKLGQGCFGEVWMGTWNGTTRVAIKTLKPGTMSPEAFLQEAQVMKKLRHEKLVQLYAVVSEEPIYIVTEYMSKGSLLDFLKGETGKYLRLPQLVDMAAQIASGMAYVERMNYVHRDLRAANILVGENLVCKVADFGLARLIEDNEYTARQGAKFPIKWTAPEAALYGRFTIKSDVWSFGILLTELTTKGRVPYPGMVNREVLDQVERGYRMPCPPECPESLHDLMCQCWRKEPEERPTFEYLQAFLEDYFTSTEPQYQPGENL

pKd [1]: 9.55
Compound: CCC(C)[C@@H](NC(=O)[C@@H](CCC(=O)O)NC(=O)[C@@H](CCC(=O)O)NC(=O)[C@@H](CCC(=O)O)NC(C)=O)C(=O)N[C@H](Cc1ccc(NC(=O)CCCCCn2cc(-c3ccc(-n4nc(-c5ccc(Cl)cc5)c5c(N)ncnc54)cc3)nn2)cc1)C(=O)NCC(=O)N[C@H](CCC(=O)O)C(=O)N[C@H](Cc1ccccc1)C(=O)N[C@H](CCC(=O)O)C(=O)N[C@H](C)C(N)=O (stereo partly drawn)

pIC50 [2]: 6.92
Compound: CN1CCN(c2cnc3c(C4CCN(C(=O)c5ccc(OC(F)(F)F)cc5N)CC4)ncnc3c2)CC1 [BAY-885]

pKi [3]: 7.70
Compound: O=C(CCS)Nc1cccc(Nc2nccc(Nc3cc(C4CC4)[nH]n3)n2)c1
